{
  "source": "ChEMBL document CHEMBL4041543",
  "about": "“Light induced drug release from a folic acid-drug conjugate” (Bioorg Med Chem Lett, 2017)",
  "experiment": "Drug level treated with Photo Dox-Fol conjugate assessed as photolysis-mediated compound release in presence of 1.1 J/cm2 UV light irradiation by RP-HPLC method",
  "data": [
    {"smiles": "COc1cccc2c1C(=O)c1c(O)c3c(c(O)c1C2=O)C[C@@](O)(C(=O)CO)C[C@@H]3O[C@H]1C[C@H](N)[C@H](O)[C@H](C)O1", "values": [
      {"measurement": "Drug metabolism", "value": "Metabolite detected"}
    ]}
  ]
}
